For 15 molecules, T/C results are on record in PubChem BioAssay AID248 (DTP/NCI, 2004).

The assay has as its system L1210 leukemia ip in BDF1 mice, survival T/C. In words: NCI In Vivo Anticancer Drug Screen. Data for tumor model L1210 Leukemia (intraperitoneal) in B6D2F1 (BDF1) mice. Particulars: endpoint: mean survival time, higher = longer survival. In short, it runs like this:
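Survival endpoint. Drug-treated group vs vehicle group, expressed as T divided by C. Tumor passaged by transplantation.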

The mark [1] stands for this setting: dose: 50.0 mg/kg/injection, schedule: Q01DX001 (ip), vehicle: carboxymethylcellulose (CMC).
Setting [2] is: dose: 100.0 mg/kg/injection, schedule: Q01DX001 (ip), vehicle: carboxymethylcellulose (CMC).
[3] abbreviates: dose: 200.0 mg/kg/injection, schedule: Q01DX001 (ip), vehicle: carboxymethylcellulose (CMC).
[4] abbreviates: dose: 100.0 mg/kg/injection, schedule: Q04DX003 (ip), vehicle: saline with Tween-80.
Setting [5] is: dose: 200.0 mg/kg/injection, schedule: Q04DX003 (ip), vehicle: saline with Tween-80.
[6] abbreviates: dose: 400.0 mg/kg/injection, schedule: Q04DX003 (ip), vehicle: saline with Tween-80.

Where “and” joins values, the source holds several entries; their conditions need not be identical. Identical values can stand only once. Toxic doses and inconclusive results are not listed. Square brackets hold non-standard residues; d marks the D form. Peptide text beside a SMILES is read from it. * marks the point of attachment. Cbz = O=C(OCc1ccccc1)*; OBn = c1ccc(CO*)cc1; Sar = CNCC(=O)O

Take `COc1cccc2c1C(=O)c1c(O)c3c(c(O)c1C2=O)C[C@@](O)(C(=O)COC(C)=O)C[C@@H]3OC1CC(N)C(O)C(C)O1` (some centres not stated): the T/C (dose: 0.45 mg/kg/injection, schedule: Q04DX003 (ip), vehicle: saline) was 120 % of control; the T/C (dose: 0.7 mg/kg/injection, schedule: Q04DX003 (ip), vehicle: saline) was 167 % of control; the T/C (dose: 1.6 mg/kg/injection, schedule: Q04DX003 (ip), vehicle: saline) is 111 % of control; the T/C (dose: 2.4 mg/kg/injection, schedule: Q04DX003 (ip), vehicle: saline) is 104 % of control.

Turning to `O=c1[nH][n+]([O-])cc2c(C(O)=C(O)O)c[nH]c12`, the T/C is, setting by setting: (dose: 25.0 mg/kg/injection, schedule: Q04DX002 (ip), vehicle: saline with Tween-80) 94 % of control; (dose: 50.0 mg/kg/injection, schedule: Q04DX002 (ip), vehicle: saline with Tween-80) 98 % of control; (dose: 100.0 mg/kg/injection, schedule: Q04DX002 (ip), vehicle: saline with Tween-80) 105 % of control.

On to `O=C(Nc1cc([N+](=O)[O-])ccc1F)N(C1CCCCC1)C1CCCCC1`, for which the T/C (dose: 100.0 mg/kg/injection, schedule: Q04DX003 (ip), vehicle: Klucel (hydroxypropylcellulose) (HPC)) was 87 % of control; the T/C (dose: 200.0 mg/kg/injection, schedule: Q04DX003 (ip), vehicle: Klucel (hydroxypropylcellulose) (HPC)) is 96 % of control; the T/C (dose: 400.0 mg/kg/injection, schedule: Q04DX003 (ip), vehicle: Klucel (hydroxypropylcellulose) (HPC)) was 104 % of control.

On to `COc1cc(C)cccc1=O`, for which the T/C runs as follows: under setting [1], 107 % of control; under setting [2], 107 % of control; under setting [3], 96 % of control; (dose: 400.0 mg/kg/injection, schedule: Q01DX001 (ip), vehicle: carboxymethylcellulose (CMC)) 98 % of control.

In the case of `COC12C3C=CC4C(C=C3)C4C1C2Br` (configuration not stated), the T/C runs as follows: (dose: 100.0 mg/kg/injection, schedule: Q01DX001 (ip), vehicle: Klucel (hydroxypropylcellulose) (HPC)) 98 % of control; (dose: 200.0 mg/kg/injection, schedule: Q01DX001 (ip), vehicle: Klucel (hydroxypropylcellulose) (HPC)) 103 % of control; (dose: 400.0 mg/kg/injection, schedule: Q01DX001 (ip), vehicle: Klucel (hydroxypropylcellulose) (HPC)) 106 % of control.

Consider `CNC(=O)Nc1ncn[nH]1`, for which the T/C (dose: 75.0 mg/kg/injection, schedule: Q01DX001 (ip), vehicle: carboxymethylcellulose (CMC)) is 103 % of control; the T/C (dose: 150.0 mg/kg/injection, schedule: Q01DX001 (ip), vehicle: carboxymethylcellulose (CMC)) was 98 % of control; the T/C (dose: 300.0 mg/kg/injection, schedule: Q01DX001 (ip), vehicle: carboxymethylcellulose (CMC)) was 104 % of control.

As for `O=C(c1ccccn1)C12CC3CC(CC(C3)C1)C2`, the T/C is 97 % of control under setting [4], 98 % of control under setting [5] and 101 % of control under setting [6].

As for `NC(=O)N/N=C/c1cc(=O)[nH]c(=O)[nH]1`, the T/C is 88 % of control (dose: 100.0 mg/kg/injection, schedule: Q01DX001 (ip), vehicle: saline); 97 % of control (dose: 200.0 mg/kg/injection, schedule: Q01DX001 (ip), vehicle: saline); 97 % of control (dose: 400.0 mg/kg/injection, schedule: Q01DX001 (ip), vehicle: saline).

For the molecule `O=[N+]([O-])c1ccc(-[n+]2nc(-c3ccccc3)nn2-c2ccc(I)cc2)cc1`, the T/C runs as follows: (dose: 8.0 mg/kg/injection, schedule: Q01DX015 (ip), vehicle: carboxymethylcellulose (CMC)) 96 % of control; (dose: 16.0 mg/kg/injection, schedule: Q01DX015 (ip), vehicle: carboxymethylcellulose (CMC)) 96 % of control; (dose: 32.0 mg/kg/injection, schedule: Q01DX015 (ip), vehicle: carboxymethylcellulose (CMC)) 103 % of control; under setting [1], 91 % of control; (dose: 64.0 mg/kg/injection, schedule: Q01DX015 (ip), vehicle: carboxymethylcellulose (CMC)) 88 % of control.

Take `O=C(Nc1cccnc1)c1cccc([N+](=O)[O-])c1`: the T/C (dose: 200.0 mg/kg/injection, schedule: Q04DX002 (ip), vehicle: Klucel (hydroxypropylcellulose) (HPC)) was 108 % of control and the T/C (dose: 400.0 mg/kg/injection, schedule: Q04DX002 (ip), vehicle: Klucel (hydroxypropylcellulose) (HPC)) was 97 % of control.

For the molecule `CN(CCCCN(C)CCOS(C)(=O)=O)CCOS(C)(=O)=O`, the T/C (dose: 1.7 mg/kg/injection, schedule: Q01DX015 (ip), vehicle: saline) was 177 % of control; the T/C (dose: 8.3 mg/kg/injection, schedule: Q01DX001 (ip), vehicle: saline) was 155 % of control; the T/C (dose: 12.5 mg/kg/injection, schedule: Q01DX001 (ip), vehicle: saline) was 160 % of control; the T/C (dose: 18.7 mg/kg/injection, schedule: Q01DX001 (ip), vehicle: saline) was 155 % of control; the T/C (dose: 25.0 mg/kg/injection, schedule: Q01DX001 (ip), vehicle: saline) was 116 % of control.

On to `O=C(Nc1nccs1)Nc1cc(C(F)(F)F)ccc1Cl`, for which the T/C runs as follows: under setting [1], 103 % of control; (dose: 50.0 mg/kg/injection, schedule: Q01DX009 (ip), vehicle: carboxymethylcellulose (CMC)) 98 % of control and 109 % of control; (dose: 50.0 mg/kg/injection, schedule: Q04DX003 (ip), vehicle: carboxymethylcellulose (CMC)) 102 % of control; under setting [2], 97 % of control; (dose: 100.0 mg/kg/injection, schedule: Q01DX009 (ip), vehicle: carboxymethylcellulose (CMC)) 101 % of control and 88 % of control; (dose: 100.0 mg/kg/injection, schedule: Q04DX002 (ip), vehicle: carboxymethylcellulose (CMC)) 97 % of control and 101 % of control. Besides, the T/C runs as follows: (dose: 100.0 mg/kg/injection, schedule: Q04DX003 (ip), vehicle: carboxymethylcellulose (CMC)) 97 % of control; under setting [3], 98 % of control; (dose: 200.0 mg/kg/injection, schedule: Q04DX002 (ip), vehicle: carboxymethylcellulose (CMC)) 87 % of control; (dose: 200.0 mg/kg/injection, schedule: Q04DX003 (ip), vehicle: carboxymethylcellulose (CMC)) 96 % of control.

`O=c1[nH]cnc2c1cnn2C1OC(CO)C(O)C1O` (configuration not stated): the T/C is, setting by setting: (dose: 12.5 mg/kg/injection, schedule: Q01DX005 (ip), vehicle: water) 92 % of control; (dose: 25.0 mg/kg/injection, schedule: Q01DX005 (ip), vehicle: water) 106 % of control; (dose: 50.0 mg/kg/injection, schedule: Q01DX005 (ip), vehicle: water) 97 % of control; (dose: 100.0 mg/kg/injection, schedule: Q01DX005 (ip), vehicle: water) 108 % of control; (dose: 200.0 mg/kg/injection, schedule: Q01DX005 (ip), vehicle: water) 93 % of control.

As for `CC1(C)N=C(N)N=C(N)N1c1ccc(CCCCc2ccc(Cl)c(S(=O)(=O)F)c2)c(Cl)c1`, the T/C reads like this: (dose: 12.5 mg/kg/injection, schedule: Q01DX009 (ip), vehicle: saline sonified) 93 % of control; (dose: 12.5 mg/kg/injection, schedule: Q04DX003 (ip), vehicle: saline sonified) 96 % of control; (dose: 25.0 mg/kg/injection, schedule: Q01DX009 (ip), vehicle: saline sonified) 94 % of control; (dose: 25.0 mg/kg/injection, schedule: Q04DX003 (ip), vehicle: saline sonified) 93 % of control; (dose: 50.0 mg/kg/injection, schedule: Q01DX009 (ip), vehicle: saline sonified) 98 % of control; (dose: 50.0 mg/kg/injection, schedule: Q04DX003 (ip), vehicle: saline sonified) 93 % of control.

In the case of `CN(CC(=O)OCc1ccccc1)C(=O)CNC(=O)CNC(=O)OCc1ccccc1` (Cbz-Gly-Gly-[Sar]-OBn), the T/C reads like this: under setting [4], 92 % of control; under setting [5], 90 % of control; under setting [6], 95 % of control.
